Test results published in patent publication US20240000950A1, “THERAPEUTIC CURE-PRO COMPOUNDS FOR TARGETED DEGRADATION OF BET DOMAIN PROTEINS, AND METHODS OF MAKING AND USING THEM” (CORNELL UNIVERSITY, priority 2020, published 2024).

Tests used:
SLC19A1 = assay: Suppression of the c-MYC downstream target gene SLC19A1, RT-PCR in HeLa cells; assay type: cell-based, Human; conditions: 24 h, 10 μM, single agent
Description: The suppression of the expression of the downstream c-MYC target, SLC19A1, was measured by RT-PCR using Power SYBR® Green Cells-to-Ct™ Kit (Life Technologies). Adherent cells were plated on 96 well plates at 5,000 cells per well were treated for 24 h with monomer compounds and compounds capable of reversible interactions (1 nM-100 μM). Cells were subsequently washed in ice-cold PBS processed according to the manufacturer's instructions. Quantitative real-time PCR was performed using a ViiA™ 7 Real-time PCR System (Applied Biosystems, Foster City, CA, USA). GAPDH and ACTB served as internal controls. The primers used were (5′-3′): GAPDH-F: AGCCACATCGCTCAGACAC (SEQ ID NO:9), GAPDH-R: GCCCAATACGACCAAATCC (SEQ ID NO:10), ACTB-F: CCAACCGCGAGAAGATGA (SEQ ID NO:11), ACTB-R: […] (SEQ ID NO:12), SLC19A1-F: […] (SEQ ID NO:13), SLC19A1-R: […] (SEQ ID NO:14).
HeLa cells (1×104) were treated for 24 hours in 96 well plates with the compounds solubilized in DMSO. Compounds were added at 10 μM each and RNA expression measured by the Cells-to Ct method described above (Thermofisher).

BRD4 [1] = target: T1, BRD4 (Homo sapiens, UniProt O60885); assay: CURE-PRO-mediated BRD4 degradation in HeLa cells, Western blot; assay type: cell-based; parameters: endogenous in cells; host or cells: HeLa; conditions: 24 h; for BRD4 degradation: BRD ligand (monomer) alone
Description: (§1) All cell lines were purchased from ATCC or DSMZ and grown at 37° C. with 5% C02. Human HeLa cells were cultured in complete growth medium (Dulbecco's modified Eagle's medium (DMEM) supplemented with 10% FBS); MCF7 cells were cultured in complete growth medium (Dulbecco's modified Eagle's medium (DMEM) supplemented with 10% FBS and 0.01 mg/ml human recombinant insulin (Sigma Aldrich); Namalwa and MOLM-13 cells were cultured in complete growth medium (RPMI 1640 medium supplemented with 10% FBS); MV-4-11 were cultured in complete growth medium (Iscove's Modified Dulbecco's medium, supplemented with 10% FBS); HCT116 cells were cultured in complete growth medium (McCoy's 5a Medium supplemented with 10% FBS). For cellular degradation of BRD4 studies, cells were seeded in a 12-well plate at 70-80% confluency, allowed to attach overnight, and incubated with the indicated compounds for the indicated time. When indicated, a 15-minute pretreatment with 10 μM pomalidomide, 10 μM VHL298, 10 μM Nutlin3a, 1 μM MG-132 or 1 μM Carfilzomib was performed before the addition of CURE-PROs. For washout studies, after CURE-PRO treatment, media was aspirated and incubated with complete medium for the indicated time before lysis.
(§2) Anti-BRD4 (13440, 1:1,000 dilution for Western Blot and 1:25 dilution for ProteinSimple); Anti-BRD2 (5848 1:1,000 dilution for Western Blot and 1:25 dilution for ProteinSimple); β-Actin (3700, 1:2,000 dilution for Western Blot), β-Actin (4970, 1:50 dilution for ProteinSimple) anti-mouse IgG-HRP, and anti-rabbit IgG-HRP antibodies were purchased Cell Signaling Technology. Anti-GAPDH (600-401-A33, 1:100 dilution for ProteinSimple) was purchased from Rockland Immunochemicals, Inc. Anti-BRD3 (sc-81202, 1:200 dilution for Western Blot) was purchased from Santa Cruz Biotechnology.
HeLa, MCF7, or HCT116 cells (2.5-3×10^6) were treated for 24 hours with the indicated compounds solubilized in DMSO. The cells were washed in ice-cold PBS and were then lysed in RIPA lysis buffer (150 mM NaCl, 5 mM EDTA, 1% NP-40, 0.5% sodium deoxycholate, 0.1% SDS, 50 mM Tris, pH 8.0) with Roche protease inhibitor complete cocktail and phosphatase inhibitors (10 mM sodium fluoride, 10 mM sodium pyrophosphate, 1 mM sodium orthovanadate and 20 mM β-glycerophosphate). The total protein concentrations were determined by Bradford Protein Assay and 10-20 μg of protein was loaded onto 4-15% Tris-Glycine gradient gels (Biorad). After standard gel electrophoresis, the separated proteins were transferred to PVDF membrane by wet transfer. The immunoblots were then blocked for 1 hour in 5% skim milk in TBST or 5% BSA in TBST, according to manufacturer's instructions, before an overnight incubation at 4° C. with indicated antibodies and membranes. Membranes were then incubated with the appropriate horseradish peroxidase-conjugated secondary antibodies (1:5,000 dilution) for 1 h at room temperature and the bands were visualized using the Clarity Max Western ECL Substrate (Biorad) and the ChemiDoc Imaging System (Biorad). Signal was detected with ECL Western Blotting Substrate (Pierce) and X-ray film processed with a Konica SRX-101 X-ray film processor or captured by Bio-Rad's Chemidoc Imaging system.
HeLa cells (2.5×10^6) were treated for 24 hours with the sample compounds solubilized in DMSO. Compounds were added at 1-10 μM each. Standardized protein samples were electrophoresed and imaged as described in the immunoblotting description above. FIGS. 6-18 depicts the CURE-PRO-mediated BRD4 degradation for BRD monomers (JQ1 derivatives comprising of catechol linkers), and CRBN ligands, 8048 and 8049 (pomalidomide derivatives comprising boronic acid linkers) combined in a 1:1 ratio.
HeLa cells (2.5×10^6) were treated for 24 hours with the compounds solubilized in DMSO. The compounds were added at 10 μM each. Standardized protein samples were electrophoresed and imaged as described in the immunoblotting section above. […]

BRD4 [2] = target: T1, BRD4; assay: Summary of E3 ligase directed degradation of BRD4, estimated from Western Blot or WES (Tables 1-6); assay type: cell-based; parameters: endogenous in cells; host or cells: HeLa, MCF7 or HCT116; conditions: for Degradation of BRD4, combination with CRBN ligand [drawing 421]: CRBN ligand drawn as drawing 421 (by the text apparently 8047); for Degradation of BRD4, combination with CRBN ligand [drawing 422]: CRBN ligand drawn as drawing 422 (by the text apparently 8066)
Summary of the method: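 HeLa, MCF7 or HCT116 cells treated 24 h with compounds in DMSO, lysed in RIPA buffer; BRD4 levels read by Western blot (ECL detection) or capillary WES with HRP detection. Check mark denotes 30% to 70% or higher protein degradation.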

BRD4 [3] = target: T1, BRD4; assay: CURE-PRO-mediated BRD4 degradation in HeLa cells, WES capillary electrophoresis (ProteinSimple); assay type: cell-based; parameters: endogenous in cells; host or cells: HeLa; conditions: for BRD4 degradation: 24 h, co-dosed with CRBN ligand 8047, 100 nM-10 μM each
Description: as §1, §2
WES Simple analysis was performed on WES system (ProteinSimple-Biotechne) according to the manufacturer's instructions. Total protein concentrations of cell lysates were determined by the Pierce BCA kit (Thermo Fisher). 3 μL of 0.3 μg/uL of the protein lysate was loaded onto a 12- to 230-kDa WES assay plate (ProteinSimple) where 300 nL sample was withdrawn through a capillary, subjected to electrophoretic separation of proteins by size, and followed by the simultaneous, HRP-based detection of proteins using the Anti-Rabbit Detection Module (Proteinsimple: #DM-001). The electropherograms were checked then the automatic peak detection was manually corrected if it was required.
HeLa cells (2.5×10^6) were treated for 4-24 hours with the compounds solubilized in DMSO. After 4 hours, indicated points were washed and cells were left in full growth media. Compounds were added at 10 μM each. […]

SMILES | BRD4 degradation (BRD4 [1]) | Degradation of BRD4, combination with CRBN ligand [drawing 421] (BRD4 [2]; Table 1) | Degradation of BRD4, combination with CRBN ligand [drawing 422] (BRD4 [2]; Table 1) | BRD4 degradation (BRD4 [3]) | also measured
Cc1sc2c(c1C)C(c1ccc(Cl)cc1)=N[C@@H](CC(=O)Nc1ccc(OCCOCCOCCOCCNc3cccc4c3C(=O)N(C3CCC(=O)NC3=O)C4=O)cc1)c1nnc(C)n1-2 (stereo partly shown) [ARV-825, reference compound] |  |  |  |  | suppression of SLC19A1 expression (SLC19A1): Complete suppression of SLC19A1 was evident
COc1ccc2c(c1)C(c1ccc(Cl)cc1)=N[C@@H](CC(=O)NCCNC(=O)/C=C/c1cccc(B(O)O)c1)c1nnc(C)n1-2 [BRD-E30, (3-((E)-3-((2-(2-((4S)-6-(4-chlorophenyl)-8-methoxy-1-methyl-4H-benzo[f][1,2,4]triazolo[4,3-a][1,4]diazepin-4-yl)acetamido)ethyl)amino)-3-oxoprop-1-en-1-yl)phenyl)boronic acid] | no change in expression is observed | ✓ (A black check mark indicates efficacy of 30% to 70% or higher protein degradation) | ✓ (A black check mark indicates efficacy of 30% to 70% or higher protein degradation) |  | 
CCNC(=O)C[C@@H]1N=C(c2ccc(Sc3cccc(B(O)O)c3)cc2)c2cc(OC)ccc2-n2c(C)nnc21 [BRD-E52, (3-((4-((4S)-4-(2-(ethylamino)-2-oxoethyl)-8-methoxy-1-methyl-4H-benzo[f][1,2,4]triazolo[4,3-a][1,4]diazepin-6-yl)phenyl)thio)phenyl)boronic acid] |  | ✓ (A black check mark indicates efficacy of 30% to 70% or higher protein degradation) | ✓ (A black check mark indicates efficacy of 30% to 70% or higher protein degradation) | marked BRD4 degradation | BRD4 degradation, time dependence and washout (BRD4 [3]; 4-24 h, 10 μM each, co-dosed with CRBN ligand 8047, washed after 4 h): marked BRD4 degradation after 4 h with sustained degradation for up to 8 h after drugs are washed out; BRD4 degradation with pomalidomide and the BRD ligand (no 8047) (BRD4 [1]; 10 μM): failed to induce BRD4 degradation; BRD4 degradation after preincubation with pomalidomide (BRD4 [1]; 10 μM, 1:1 with CRBN ligand 8047, pomalidomide preincubated 15 min at equimolar concentration): inhibition of CURE-PRO-mediated BRD4 degradation
CCNC(=O)C[C@@H]1N=C(c2ccc(Sc3ccccc3)cc2)c2cc(OC)ccc2-n2c(C)nnc21 [BRD-E52C, N-ethyl-2-((4S)-8-methoxy-1-methyl-6-(4-(phenylthio)phenyl)-4H-benzo[f][1,2,4]triazolo[4,3-a][1,4]diazepin-4-yl)acetamide] |  |  |  | failed to induce degradation even at 10 μM | 
CCNC(=O)C[C@@H]1N=C(c2ccc(Cl)cc2)c2cc(OCCCCCCNC(=O)c3ccc(B(O)O)cc3)ccc2-n2c(C)nnc21 [BRD-E79, (4-((6-(((4S)-6-(4-chlorophenyl)-4-(2-(ethylamino)-2-oxoethyl)-1-methyl-4H-benzo[f][1,2,4]triazolo[4,3-a][1,4]diazepin-8-yl)oxy)hexyl)carbamoyl)phenyl)boronic acid] | no change in expression is observed | ✓ (A black check mark indicates efficacy of 30% to 70% or higher protein degradation) | ✓ (A black check mark indicates efficacy of 30% to 70% or higher protein degradation) |  | Degradation of BRD4, combination with CRBN ligand [drawing 397] (BRD4 [2]; Table 1, aromatic 1,2-diol- or hindered cis-1,2-diol-containing CRBN ligand drawn as drawing 397 (by the text apparently 8046)): ✓ (A black check mark indicates efficacy of 30% to 70% or higher protein degradation); Degradation of BRD4, combination with MDM2 ligand [drawing 430] (BRD4 [2]; Table 2, aromatic 1,2-diol-containing MDM2 ligand drawn as drawing 430 (by the text apparently 8313)): ✓ (A black check mark indicates efficacy of 30% to 70% or higher protein degradation)
